Data from patent publication US8318490B2, “Prelamin A pre peptide as a universal stem cell differentiation signal” (The Regents of the University of Colorado, a Body Corporate, priority 2006, dated 2012).
Ends that are not written are not given here.

Experiments:
C2C12 myoblasts = assay: Prelamin A pre peptide treatment of mitotically dividing C2C12 myoblasts, microscopy/immunostaining; assay type: cell-based, mouse
Method: (§1) Cells and transfections. C2C12 and H9C2 cells were cultured in Growth Media (GM) defined as DMEM containing 10% (vol/vol) fetal bovine serum supplemented with Lglutamine, HEPES, non-essential amino acids and antibiotics. Effectene (Qiagen) was used to transfect plasmid DNA into cells following the manufacturer's instructions. Nondifferentiating transfected cells were allowed to continue growing for an additional 24 h before being processed for microscopy, or until confluent for protein isolation.
Peptide synthesis. The farnesylated and carboxymethylated prelamin A C-terminal peptide N-LLGNSSPRTQSPQNC-C (SEQ ID NO:2) was generated by FMOC solid phase peptide synthesis, and farnesylated and carboxymethylated (Biosynthesis). The peptide was analyzed on a C4 column and by laser desorption mass spectrometry. The lyophilized peptide was resuspended in DMSO.
(§2) Microscopy. Cells were fixed in cold 70% methanol/30% acetone solution for 10 min. Immunostaining was performed with anti-human lamin A/C (Novocastra), anti-prelamin A (Santa Cruz), or anti-desmin (Sigma) primary antibodies followed by the appropriate fluorescently labeled secondary antibody and mounting in anti-fade media containing DAPI (Vector Laboratories). Images were captured on an Olympus IX81 inverted microscope with Olympus objectives (U PLAN APO 10× oil N.A. 0.40, UAPO 40× oil N.A. 1.35, TIRFM PLAN APO 60× oil N.A. 1.45 WD 0.15 mm) and a Hamamatsu ORCA IIER monochromatic CCD camera and Intelligent Imaging Slidebook software. Images were also acquired on an Olympus IX70 Infinity inverted microscope with Olympus objectives (100× U PLAN APO, N.A. 1.35, W.D. 0.1 mm, oil; 20× U PLAN Fluorite, N.A. 0.5) with a Photometrics Quantix cooled CCD camera using Deltavision software. Signal strengths for the individual channels were adjusted using Adobe Photoshop strictly for improving the overall signal to noise ratio.
The farnesylated and carboxymethylated prelamin A pre peptide was chemically synthesized, and mitotically dividing C2C12 myoblasts were treated with the peptide at 1, 10 and 25 μg/ml in complete growth media containing 10% FBS.

[1] = test system: H9c2 rat cardiac myoblasts; assay: Prelamin A pre peptide treatment of H9c2 cardiac myoblasts, desmin immunostaining; assay type: cell-based
Method: as §1, §2
These cells were previously considered to be of cardiac lineage in part because they express heart-specific L-type calcium channels after prolonged exposure to retinoic acid during serum starvation induced differentiation (24). However, differentiation of H9c2 cells in culture has previously led to fusion and multinucleate myotube formation more resembling skeletal myotubes than cardiac myocytes.
Higher order intra- and intercellular organization is clearly evident in visible striations in the desmin staining pattern. […]

H9c2 cells = assay: Western blots of peptide-treated H9c2 cells; assay type: cell-based, rat; details: Western blot
Method: Western blots. Cells were lysed in cell buffer (1% Triton X-100, 20 mM Tris-Cl, 7.5, 10 mM NaCl, 5 mM MgC2) containing 46 μg/ml leupeptin, 10 μg/ml aprotinin, and 250 μg/ml AE-BSF for 10 min on ice. Total protein concentration was determined using BioRad Protein Assay reagent and equal amounts of total protein were loaded in each lane. Western blots were probed with anti-lamin A/C (Novocastra, Santa Cruz), antiprelamin A (Santa Cruz) and anti-myogenin (Santa Cruz) primary antibodies and HRP-conjugated secondary antibodies (Santa Cruz, Pierce). Secondary antibody detection was performed using Super signal HRP (Pierce).
Higher order intra- and intercellular organization is clearly evident in visible striations in the desmin staining pattern. […] As in serum starvation induced differentiation of H9c2 myoblasts (26), an increase in the myogenic transcription factor myogenin is seen upon peptide treatment (FIG. 5F).

[2] = test system: neonatal rat cardiac myocytes (NRMCs); assay: Peptide treatment of neonatal rat cardiac myocytes (NRMCs); assay type: cell-based
Text: Consequently, the prelamin A pre peptide not only determines tissue organization amongst the same type of cells, but also intracellular organization between different cell and tissue types.

[3] = test system: adult rabbit cardiac myocytes; assay: Peptide treatment of adult rabbit cardiac myocytes; assay type: cell-based; details: differentiated cells
ES cells = assay: Peptide treatment of embryonic stem cells, staining for tubulin, pre peptide, DAPI; assay type: cell-based; details: 1 μg/ml, 6 hours
Text: ES cells were contacted with the prelamin A pre peptide (courtesy of Dr. Chris Hogan, University of Colorado).
FIGS. 14A-14C show a 10× control. The ES cells have round distinct nuclei and are expressing tubulin. The prelamin A signal is primarily in extracellular aggregates, though nuclear staining can also be detected.

Mouse neural stem cells = assay: Peptide treatment of mouse neural stem cells, lamin A/C, tubulin, DAPI staining; assay type: cell-based; details: two days
Method: Mouse neural stem cells were treated with the prelamin A peptide for two days (FIGS. 18D-18F) and were then fixed, immunostained for lamin A/C expression (FIGS. 18A and 18D) and tubulin expression (FIGS. 18B and 18E), and stained for DNA with DAPI (FIGS. 18C and 18F). […] Tubulin expression in untreated cells is cytoplasmic and relatively diffuse, and tubulin is excluded from the cell nucleus. In peptide-treated cells a distinct filamentous tubulin staining pattern is seen initiating at the cell nucleus and extending into the cell body.

[4] = test system: Mouse F9 embryonic carcinoma cells; assay: Peptide treatment of F9 embryonic carcinoma cells, lamin A/C, keratin 8, DAPI staining; assay type: cell-based; details: two days
Method: Mouse F9 embryonic carcinoma cells were treated with the prelamin A peptide for two days (FIGS. 19D-19F) and then were fixed, immunostained for lamin A/C expression (FIGS. 19A and 19D) and keratin 8 expression (FIGS. 19B and 19E), and stained for DNA with DAPI (FIGS. 19C and 19F). Keratin 8 and lamin A/C co-localize in all cells. […] Both keratin 8 and lamin A/C display distinct perinuclear filamentous staining, with greater expression towards the center of cell colonies than the periphery, in untreated F9 cells. […] The treated cells display a DNA morphology consistent with expansion of DNA into […]. Furthermore, cells at the edges of the treated colonies display altered cell morphology and are extending away from the colony, and intercellular spacing in the treated cell colonies has clearly been expanded.

neuroblastoma = assay: Peptide application to neuroblastoma cells (data not shown); assay type: cell-based
fibroblasts = assay: Peptide exposure of homogeneous fibroblast cultures; assay type: cell-based
C2C12 cells = assay: Chicken prelamin A peptide treatment of proliferating C2C12 cells, desmin immunostaining; assay type: cell-based, mouse; details: 40 ug/ml
Method: The chicken homologue of the human prelamin A peptide (SEQ ID NO: 17) was chemically synthesized and farnesylated and carboxymethylated. The lyophilized peptide was dissolved at 10 mg/ml in 50% DMSO/50% water. Actively proliferating C2C12 cells were treated with the chicken prelamin A peptide at 40 ug/ml on plastic chamber slides in complete DMEM media containing 10% fetal bovine serum (FBS). After 20 hours the cells were fixed in methanol/acetone and then immunostained with a rabbit anti-desmin primary antibody and a Texas Red conjugated anti-rabbit secondary antibody. Cover slips were mounted with media containing DAPI.

NIH3T3-L1 preadipocytes = assay: Chicken prelamin A peptide treatment of preadipocytes, oil red O staining; assay type: cell-based; details: 72 hours
Text: Based on the change in morphology and the oil red 0 staining, the chicken peptide induces the differentiation of NIH3T3-L1 cells into adipocytes.

With “N-LLGNSSPRTQSPQNC-C (not fully specified (residue 15); also: farnesylated, carboxymethylated; listed as Homo sapiens) [prelamin A pre peptide, farnesylated and carboxymethylated prelamin A C-terminal peptide (human, 15 amino acids), made by FMOC solid phase peptide synthesis]” the cell morphogenesis (C2C12 myoblasts; 1 μg/ml, six hours, complete growth media containing 10% FBS) was “cells have undergone morphogenesis into a bipolar configuration”, the desmin localization (C2C12 myoblasts; 1 μg/ml, six hours, growth media 10% FBS) was “desmin can be seen localizing to the interface with the nuclear lamina and forming a filamentous skeleton at the locations where cells interact” and the desmin expression (C2C12 myoblasts; 6 hours after peptide exposure) was “desmin expression is either upregulated or redistributed”. For the same substance, the “prelamin A matrix formation” value (C2C12 myoblasts; 6 hours after peptide exposure) was “prelamin A forms intra- and intercellular matrices”, the cell fusion (C2C12 myoblasts; 6 hours of peptide treatment) was “cell fusion can be seen” and the “cell fusion / tissue formation” value (C2C12 myoblasts; 72 hours, depending on cell density) was “the cells have fused to form either sheets or myotubes”. The “time to induction of differentiation after contact with the peptide” value (C2C12 myoblasts; absence of conventional differentiation factors or cell confluence) was “within minutes”, the “fusion of closely spaced myoblasts and cell death” value (C2C12 myoblasts; closely spaced myoblasts) was “induces fusion of closely spaced myoblasts into a syncicium which eventually results in cell death” and the “effect of higher peptide concentrations” value (C2C12 myoblasts; higher concentrations of the peptide) was “cell fusion and myotube formations”. The “concentrations inducing myoblast differentiation” value (C2C12 myoblasts; in vitro) was “micromolar and even nanomolar concentrations”, the ECM excretion (C2C12 myoblasts; low concentrations of the peptide) was “excrete ECM” and the “effect on cell proliferation” value (C2C12 myoblasts; peptide at 1, 10 and 25 μg/ml) was “dose-dependant effect on cell proliferation”. For the same substance, the polarization of nuclei (C2C12 myoblasts; peptide at 1, 10 and 25 μg/ml) was “induces the kidney-shaped polarization of nuclei”, the “effect of lower peptide concentrations” value (C2C12 myoblasts; topical exposure, lower peptide concentrations) was “differentiation and morphogenesis representing a number of different cell types, and to intercellular interactions and tissue formation” and the tissue formation ([1]; after 48 hours) was “formed a tissue sheet of mono- and binucleated cells interconnected by an extensive ECM”. For the same substance, the “time to extracellular matrix formation” value ([1]; cardiac myoblasts contacted with peptide) was ≤ 5 min, the extracellular matrix secretion ([1]; within six hours, growth media containing 10% FBS) was “secrete an extensive desmin extracellular matrix (ECM)” and the “lamin A/C expression” value (H9c2 cells) was “modest increases”. For the same substance, the myogenin expression (H9c2 cells) was “increase”, the “prelamin A expression” value (H9c2 cells) was “modest increases” and the cell fusion ([2]; 10 ug/ml, six hours) was “a number of cells can be seen to have fused”. The cell morphology ([2]; 10 ug/ml, six hours) was “show an elongated morphology”, the morphogenesis and fusion ([2]; 25 ug/ml, 18 hours) was “more extensive myocytes morphogenesis and fusion is observed” and the fusion into myosheets ([2]; 72 hours of exposure) was “fused into beating myosheets”. For the same substance, the “effect on fibroblasts and interaction between cell types” value ([2]; fibroblasts adjacent to NRMCs, tubulin and actin staining) was “induces the differentiation of fibroblasts and fusion/cross-talk between different cell types”, the cytoskeletal effect [3] was “cytoskeletal rearrangements were induced and there was a dissolution of the actin cytoskeleton” and the DNA morphology (ES cells) was “changed drastically”. The “secretion of pre peptide” value (ES cells) was “extensive secretion of the pre peptide”, the tubulin expression (ES cells) was “no longer any tubulin expression” and the cell appearance (Mouse neural stem cells) was “taken on the appearance of nerve cells, including glial cells”. The “cell morphology and tubulin expression” value (Mouse neural stem cells) was “induced changes in cell morphology and tubulin expression”, the cell proliferation (Mouse neural stem cells) was “inhibited cell proliferation” and the “cell and DNA morphology, intercellular organization, lamin A/C and keratin 8 expression” value [4] was “induces changes in cell morphology, DNA morphology, intercellular organization, and lamin A/C and keratin 8 expression”. The cell proliferation [4] was “severely inhibits cell proliferation”, the “effect on neuroblastoma cells” value (neuroblastoma) was “arrest and aggregation” and the “structural effect on fibroblasts” value (fibroblasts) was “underwent structural reorganization”.
“VLGGAGPRRQAPAPQGC (listed as Gallus gallus) [chicken prelamin A peptide, chicken homologue of the human prelamin A peptide, chemically synthesized]” was tested, and the cytoskeleton (C2C12 cells; 20 hours, desmin staining) was “cytoskeleton formation”, the cell cycle (C2C12 cells; within 20 hours, DMEM 10% FBS) was “induced cell cycle arrest” and the morphogenesis and fusion (C2C12 cells; within 20 hours, DMEM 10% FBS) was “myoblast morphogenesis and fusion”. The differentiation (NIH3T3-L1 preadipocytes) was “differentiated into adipocytes” and the “oil red O staining” value (NIH3T3-L1 preadipocytes) was “stained positively with oil red 0”.
